31 compounds from paper PMC8041433 (Environmental Health Perspectives, 2021) can be followed below.

In assay [1] the target is T1, recombinant human AChE (Homo sapiens, UniProt P22303). Briefly: biochemical. In kind it is biochemical. Conditions: for AC50: AC50 (uM).
Assay [2] addresses AChE in SH-SY5Y cells (Homo sapiens, UniProt P22303). The assay is described as follows: cell-based.
Assay [3] addresses T1, recombinant human AChE. Briefly: biochemical.
Assay [4] concerns the target T1, recombinant human AChE.

Several values for one entry are separate records, joined by “and”; a condition that tells them apart may be missing. Identical values can stand only once. Counter-ions that a name gives are not always drawn. Like-named read-outs stand apart in the source and are kept apart here.

T1 sequence (P22303 32-614): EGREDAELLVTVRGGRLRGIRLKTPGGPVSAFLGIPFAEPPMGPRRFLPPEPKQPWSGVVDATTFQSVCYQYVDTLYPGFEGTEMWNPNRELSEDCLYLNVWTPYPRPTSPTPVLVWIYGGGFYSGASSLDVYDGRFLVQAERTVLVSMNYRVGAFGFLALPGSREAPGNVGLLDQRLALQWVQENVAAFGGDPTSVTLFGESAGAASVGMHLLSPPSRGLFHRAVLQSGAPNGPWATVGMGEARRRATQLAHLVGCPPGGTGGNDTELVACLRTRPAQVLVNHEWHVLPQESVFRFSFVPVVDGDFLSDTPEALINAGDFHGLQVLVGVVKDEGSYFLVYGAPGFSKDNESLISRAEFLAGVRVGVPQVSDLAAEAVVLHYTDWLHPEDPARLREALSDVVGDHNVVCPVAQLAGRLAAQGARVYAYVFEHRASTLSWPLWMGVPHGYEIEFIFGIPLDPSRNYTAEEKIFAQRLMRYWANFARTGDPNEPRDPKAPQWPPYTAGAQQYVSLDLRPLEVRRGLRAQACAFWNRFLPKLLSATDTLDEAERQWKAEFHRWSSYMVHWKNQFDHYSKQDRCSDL
Sequence of AChE in SH-SY5Y cells (P22303 32-614): as above

Turning to `CNC(=O)Oc1cccc2ccccc12` [carbaryl], in assay [1], the “reversibility of AChE inhibition (result in words)” value is given as “significant IC50 difference at 60 min”.
For `CCC1(c2cccc(O)c2)CCCCN(C)C1` (stereo not drawn) [Meptazinol hydrochloride, reference compound], in assay [1], the AC50 was 4.64 µM and 9.25 µM and 3.68 µM and 5.2 µM and 8.25 µM and 5.84 µM and 6.55 µM.
As to `C=CCN1CC[C@]23CCCC[C@H]2[C@H]1Cc1ccc(O)cc13` [Levallorphan], the “CC-v2 (curve classes)” value in assay [2] is listed as -2.1; in assay [3], 4; in assay [4], 4. Also, the Efficacy in assay [3] is on record as -27.829; in assay [4], 0.
`CCCCCCCCCCCCCC[n+]1ccccc1` [Tetradecylpyridinium bromide]: the “CC-v2 (curve classes)” value was -1.1 and -2.1 in assay [2]; -2.1 in assay [3]; 4 in assay [4]. Further, the half-inhibitory concentration (IC50) was 31.7 µM and 39.9 µM in assay [2] (IC50 (uM)); 56.4 µM in assay [3] (IC50 (uM)). For the same compound, the Efficacy is listed as -102.568 in assay [3] and 0 in assay [4].
For `COc1cc(N)c(Cl)cc1C(=O)NC1CN2CCC1CC2.Cl` (stereo not drawn) [Zacopride hydrochloride], the “CC-v2 (curve classes)” value in assay [2] is recorded as -2.2; in assay [3] it was 4; in assay [4], 4. Further, the Efficacy in assay [3] and in assay [4] was 0 each time.
`NC(=O)N=NC(N)=O` [Azodicarbonamide]: in assay [2] (IC50 (uM)), the IC50 is 71 µM and 63.5 µM and 71.2 µM and 79.6 µM and 89.6 µM. The 50% inhibitory concentration (IC50) in assay [3] (IC50 (uM)) is 63.3 µM and 71.2 µM. For the same compound, in assay [4], the “CC-v2 (curve classes)” value amounted to 4 and the Efficacy was found to be 0.
For the compound `CC(C)Nc1nc(Cl)nc(NC(C)C)n1` [Propazine], the “CC-v2 (curve classes)” value in assay [2] was -2.1 and 4; in assay [3], -2.2 and 4; in assay [4] it was 4. For the same compound, the IC50 in assay [2] (IC50 (uM)) is 31.7 µM and 25.2 µM and 28.3 µM; in assay [3] (IC50 (uM)) it was 71 µM. Also, the Efficacy in assay [4] turned out to be 0.
Consider `Cc1cc(N)c2cc(NC(=O)Nc3ccc4nc(C)cc(N)c4c3)ccc2n1.Cl.Cl` [Aminoquinuride dihydrochloride], for which, in assay [2] (read-out: IC50), the IC50 is 38.9 µM and 30.9 µM. Moreover, in assay [3], the “CC-v2 (curve classes)” value is 4 and the Efficacy is on record as -15.256. Also, in assay [4], the “CC-v2 (curve classes)” value was 4 and the Efficacy was found to be 0.
Regarding `CCCN(CCc1cccs1)[C@H]1CCc2c(O)cccc2C1` [Rotigotine], the “CC-v2 (curve classes)” value in assay [2] was -2.1; in assay [3], -2.2; in assay [4], 4. For the same compound, the IC50 in assay [2] (IC50 (uM)) is 15.5 µM and 13.8 µM; in assay [3] (IC50 (uM)), 34.7 µM. Further, the Efficacy is -40.728 in assay [3] and 0 in assay [4].
As for `CN(C)C(=S)SSC(=S)N(C)C` [Thiram], in assay [2] (IC50 (uM)), the IC50 is 38.9 µM and 88.1 µM and 78.5 µM and 89.4 µM and 71 µM. Moreover, the “CC-v2 (curve classes)” value in assay [3] and in assay [4] was 4 throughout.
With `Nc1c(/N=N/c2ccc(-c3ccc(/N=N/c4cc(S(=O)(=O)O)c5ccccc5c4N)cc3)cc2)cc(S(=O)(=O)O)c2ccccc12` [C.I. Direct Red 28], the IC50 in assay [2] (IC50 (uM)) is 79.6 µM and 71 µM and 89.4 µM; in assay [3] (IC50 (uM)) it was 10 µM. For the same compound, the “CC-v2 (curve classes)” value is reported as -1.2 in assay [3] and 4 in assay [4]. Also, the figures for the Efficacy in assay [3] and in assay [4] were -36.697 and 13.368, respectively.
As to `COc1cc2nc(N(C)CCCNC(=O)C3CCCO3)nc(N)c2cc1OC` (stereo not drawn) [Alfuzosin hydrochloride, reference compound], the AC50 in assay [1] is 14.7 µM (3×) and 13.1 µM and 7.35 µM and 9.25 µM and 10.4 µM (2×).
Consider `CN(C)C(=S)SC(=S)N(C)C` [Tetramethylthiuram monosulfide], for which the half-inhibitory concentration (IC50) in assay [2] (IC50 (uM)) was 31.7 µM and 72.8 µM and 63.3 µM and 56.4 µM. For the same compound, the “CC-v2 (curve classes)” value in assay [3] and in assay [4] was 4 throughout.
Consider `CCN(CC)C(=O)[C@@H]1C=C2c3cccc4[nH]cc(c34)C[C@H]2N(C)C1` [Lysergide], for which the “CC-v2 (curve classes)” value is -2.1 in assay [2], -2.2 in assay [3] and 4 in assay [4]. Also, the concentration for half-maximal inhibition (IC50) in assay [2] (IC50 (uM)) is 73.8 µM and 93 µM; in assay [3] (IC50 (uM)) it was 104 µM. In addition, the Efficacy in assay [3] is listed as -56.682; in assay [4], -29.643.
For `CCSCc1ccccc1OC(=O)NC` [Ethiofencarb], the “CC-v2 (curve classes)” value is -1.1 and -2.1 in assay [2]; -1.1 in assay [3]; 4 in assay [4]. Besides, the concentration for half-maximal inhibition (IC50) in assay [2] (IC50 (uM)) is 10 µM and 17.8 µM; in assay [3] (IC50 (uM)), 20 µM. Also, the Efficacy in assay [3] is given as -87.381; in assay [4], -27.523.
In the case of `CCOP(=O)(OCC)OC(=CCl)c1ccc(Cl)cc1Cl` [Chlorfenvinphos], the “CC-v2 (curve classes)” value in assay [2], in assay [3] and in assay [4] was -1.1 each time. Besides, the Efficacy in assay [3] is listed as -95.584; in assay [4], -96.159.
Turning to `Oc1ccc(C(O)CNCCCCCCNCC(O)c2ccc(O)c(O)c2)cc1O` (stereo not drawn) [Hexoprenaline sulfate], the IC50 in assay [2] (IC50 (uM)) was 38.9 µM and 30.9 µM. In addition, in assay [3], the “CC-v2 (curve classes)” value is 4 and the Efficacy is on record as 0. Also, in assay [4], the “CC-v2 (curve classes)” value worked out at 4 and the Efficacy was found to be 0.
Turning to `N=C(N)NC(=O)c1nc(Cl)c(N)nc1N` [Amiloride hydrochloride], the “CC-v2 (curve classes)” value in assay [2] is -2.1; in assay [3], 4; in assay [4], 4. Moreover, the IC50 in assay [2] (IC50 (uM)) came out at 32.9 µM. The Efficacy is on record as -15.372 in assay [3] and 0 in assay [4].
As to `COP(=O)(OC)Oc1ccc([N+](=O)[O-])cc1` [Methylparaoxon], the “CC-v2 (curve classes)” value in assay [2] is listed as -1.1; in assay [3], -1.1; in assay [4], -2.1. Moreover, the Efficacy in assay [3] is on record as -92.551; in assay [4] it was -96.544.
For the compound `CN1C[C@H](C(=O)N[C@]2(C)O[C@@]3(O)[C@@H]4CCCN4C(=O)[C@H](Cc4ccccc4)N3C2=O)C=C2c3cccc4[nH]cc(c34)C[C@H]21` [Ergotamine D-tartrate], the “CC-v2 (curve classes)” value in assay [2] was -1.1; in assay [4], 4. Besides, the half-inhibitory concentration (IC50) in assay [2] (IC50 (uM)) is 8.32 µM and 1.01 µM and 3.72 µM and 1.13 µM and 0.898 µM; in assay [3] (IC50 (uM)), 29.5 µM and 5.67 µM. Further, the Efficacy in assay [4] is recorded as 0.
Regarding `CN1CCCC(n2nc(Cc3ccc(Cl)cc3)c3ccccc3c2=O)CC1` (stereo not drawn) [Azelastine hydrochloride], the “CC-v2 (curve classes)” value in assay [2] is listed as -2.1; in assay [3], -2.2; in assay [4], 4. Also, the IC50 is 17.4 µM and 15.5 µM in assay [2] (IC50 (uM)); 27.5 µM in assay [3] (IC50 (uM)). For the same compound, the results for the Efficacy in assay [3] and in assay [4] were -73.562 and 0, respectively.
Regarding `CCOP(=O)(OCC)Oc1ccc([N+](=O)[O-])cc1` [Paraoxon], the “CC-v2 (curve classes)” value in assay [2], in assay [3] and in assay [4] was -1.1 throughout.
As for `CCOP(=S)(OCC)SCSCC` [Phorate], the “CC-v2 (curve classes)” value in assay [2] is reported as -2.1; in assay [3], 4; in assay [4] it was 4. Moreover, the IC50 in assay [2] (IC50 (uM)) is 63.3 µM and 71 µM. Besides, the Efficacy is -23.652 in assay [3] and 0 in assay [4].
For the compound `CC[C@@H](CO)NC(=O)[C@@H]1C=C2c3cccc4c3c(cn4C)C[C@H]2N(C)C1` [Methysergide], the results for the “CC-v2 (curve classes)” value in assay [2], in assay [3] and in assay [4] were -1.1, -1.1 and 4, respectively. For the same compound, the IC50 was 0.389 µM and 0.245 µM and 2.45 µM in assay [2] (IC50 (uM)); 4.36 µM in assay [3] (IC50 (uM)). The Efficacy in assay [3] was -98.745; in assay [4] it was -23.381.
As for `CCN=C1C=CC(=C(c2ccc(N(CC)CC)cc2)c2ccc(N(CC)CC)cc2)c2ccccc21.Cl` [Basic Blue 7], the “CC-v2 (curve classes)” value is recorded as -2.1 in assay [2], -1.1 in assay [3] and 4 in assay [4]. Also, the IC50 was 62.9 µM and 70.6 µM and 79.2 µM in assay [2] (read-out: IC50); 19.9 µM in assay [3] (read-out: IC50). Besides, the Efficacy in assay [3] was -96.089; in assay [4], 0.
Regarding `O=P(Oc1ccccc1)(Oc1ccccc1)Oc1ccccc1` [Triphenyl phosphate], the “CC-v2 (curve classes)” value is -1.1 and -2.1 in assay [2]; -1.1 in assay [3]; -2.1 in assay [4]. Further, the half-maximal inhibitory concentration (IC50) in assay [2] (IC50 (uM)) was 20 µM and 19.9 µM and 22.3 µM and 35.6 µM and 31.6 µM and 28.1 µM and 25.2 µM.
For the compound `CCCCCCCCCCCCc1ccc(S(=O)(=O)O)cc1` [Dodecylbenzenesulfonic acid], the half-maximal inhibitory concentration (IC50) in assay [2] (read-out: IC50) is 79.6 µM and 89.4 µM and 71 µM; in assay [3] (read-out: IC50) it was 63.3 µM and 56.4 µM and 39.9 µM. The “CC-v2 (curve classes)” value was -2.1 and -1.1 in assay [3]; 4 in assay [4].
For the compound `COCCCOc1ccnc(C[S+]([O-])c2nc3ccccc3[nH]2)c1C` (stereo not drawn) [Rabeprazole sodium], the “CC-v2 (curve classes)” value in assay [2] was -2.1 and -2.2; in assay [3], 4; in assay [4], 1.1. In addition, the IC50 in assay [2] (IC50 (uM)) was 63.1 µM and 70.7 µM. Moreover, the Efficacy in assay [3] is listed as -15.052; in assay [4], 92.667.
For `O=S(=O)([O-])SSS(=O)(=O)[O-].[K+].[K+]` [Potassium tetrathionate], the “CC-v2 (curve classes)” value in assay [2] is on record as -2.1; in assay [3], -2.2; in assay [4], -2.1. The IC50 in assay [2] (read-out: IC50) was 71 µM and 79.6 µM; in assay [3] (read-out: IC50), 71 µM; in assay [4], 71 µM. The Efficacy in assay [3] is on record as -73.38; in assay [4] it was -82.524.
Turning to `CCCCCC1Nc2cc(C(F)(F)F)c(S(N)(=O)=O)cc2S(=O)(=O)N1` (stereo not drawn) [Penflutizide], the “CC-v2 (curve classes)” value is on record as -2.1 in assay [2], -2.2 in assay [3] and 4 in assay [4]. In addition, the IC50 in assay [2] (IC50 (uM)) is 15.5 µM and 13.8 µM; in assay [3] (IC50 (uM)), 21.9 µM. The Efficacy in assay [3] was -58.761; in assay [4] it was -21.532.
`N#Cc1sc2c(=O)c3ccccc3c(=O)c=2sc1C#N` [Dithianon]: the “CC-v2 (curve classes)” value in assay [2] is recorded as -2.1; in assay [3], 4; in assay [4] it was 4. Moreover, the concentration for half-maximal inhibition (IC50) in assay [2] (IC50 (uM)) is 44.8 µM and 63.3 µM. For the same compound, the Efficacy in assay [3] is listed as -13.233; in assay [4] it was 0.

As usually defined, the AC50 is the concentration at which the activity in the assay is half-maximal. As a reminder, the IC50 is the concentration that inhibits the measured activity by half.
